Source: patent US9732367B2, “Cell lines” (MEDIMMUNE LIMITED, priority 2012, dated 2017)

Experiments:
Type in all cases: cell-based
[1] = system: CHO cells stably expressing pylRS and tRNApyl and an IgG directed against her2/neu containing an amber codon; experiment: Growth and viability of pylRS/tRNApyl cell line treated with lys azide and dnnAA
Source text: To examine whether the dnnAAs of the invention could function to improve the viability of cells containing pylRS and tRNApyl we monitored the growth and viability of a cell line, stably expressing pylRS and tRNApyl. For this assay CHO cells stably expressing pylRS and tRNApyl and an IgG directed against her2/neu containing an amber codon in the heavy chain, shown to effectively incorporate nnAA into the expressed IgG thus producing an antibody containing a nnAA, were used for this experiment. Despite a high expression level of pylRS/tRNApyl pair, this cell line has very robust cell growth characteristics when grown in medium lacking nnAA. The presence of a highly expressed target containing an amber codon likely has a protective effect on the cells by supplying them with high levels of amber codons that absorb the amber suppression activity and protects the cells from the effects of background amber suppression at essential genes. However, upon addition of the nnAA (lys-azide) to the growth medium, and activation of the amber suppression machinery, a decrease in cell growth rate is observed. […] To determine whether a dnnAA can rescue this effect, cells cultured in serum free medium were grown to a cell density of 0.5×10^6 cells/mL and subsequently treated with 0.5 mM lys azide alone or in combination with 2 Mm dnnAA. Cell viability and cell numbers were monitored daily over seven days. Cells treated with lys azide alone reached a cell density just below 1×10^6 cells/mL on day 3 after nnAA addition and remained at this density for the remainder of the assay (seven days) (FIG. 15A) The lack of growth was not likely due to loss of viability as the culture retained high viability throughout the experiment (˜70% viable cells) (FIG. 15B) Cultures treated with 2 mM Compound of formula VIIB.4, or 2 mM Formula VIIB.1 in combination with 0.5 mM lys-azide supported continued growth of the culture that reached over 1.5×10^6 cells/mL and retained a cell viability of 90%.

[2] = biological target: T1, pylRS/tRNA pair (Methanosarcina mazei, UniProt Q8PWY1); experiment: GFP assay: translational testing of pyrrolysine analogs as nnAAs; details: nnAA 2 mM, 2-3 days
T1 construct: expressed in transfected cells; host or cells: HEK293 clone 3H7
T1 sequence (Q8PWY1 whole entry): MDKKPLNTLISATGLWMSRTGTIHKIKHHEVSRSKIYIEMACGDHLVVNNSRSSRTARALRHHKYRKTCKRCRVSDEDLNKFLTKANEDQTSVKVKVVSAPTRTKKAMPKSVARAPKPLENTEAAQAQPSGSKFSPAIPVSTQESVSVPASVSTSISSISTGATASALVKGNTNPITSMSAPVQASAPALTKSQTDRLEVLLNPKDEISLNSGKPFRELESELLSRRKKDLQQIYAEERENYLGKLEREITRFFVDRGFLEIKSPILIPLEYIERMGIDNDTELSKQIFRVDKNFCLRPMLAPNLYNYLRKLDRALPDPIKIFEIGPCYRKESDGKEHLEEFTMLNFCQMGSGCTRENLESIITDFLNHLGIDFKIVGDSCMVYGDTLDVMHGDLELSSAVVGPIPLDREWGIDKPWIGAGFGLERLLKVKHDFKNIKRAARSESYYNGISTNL
Source text: An in vitro cell based assay was developed to assess the compatibility of the pylRS/tRNA pair and the pyrrolysine analogs of the present invention (nnAAs) by and the efficiency of nnAAs integration into a target protein. For this, HEK293 cells stably expressing pylRS (3H7) were transiently transfected with plasmids for the expression of tRNApyl and a reporter construct encoding GFPY40 (containing amber codon in place of tyrosine at amino acid residue number 40 (where 1 is the initiator methionine)) using standard transfection protocols. Transfected cells were incubated with nnAAs at 2 mM for 2-3 days GFP production was analyzed qualitatively by visual inspection under the microscope. The GFP fluorescence was quantified by flow cytometry using an Accuri flow cytometer and the geometric mean of the fluorescent cells determined.
This cell based assay was used to determine whether the different nnAAs were suitable substrates for the pylRS and allowed its translation into a target protein. Cells expressing the PylRS/tRNApyl pair and containing a vector encoding the GFPY40 reporter gene were incubated in the presence of the nnAAs. nnAAs that are readily utilized by the PylRS/tRNApyl pair support the translation of the nnAA into the amber site of GFP and allow read-through of the gene producing full length GFP (fluorescent protein). The fluorescence intensity of the cells depends on the efficiency of nnAA incorporation. Thus, nnAAs that are poorly utilized produce weakly fluorescent or non-fluorescing cells. […] Furthermore, the relative expression levels in each sample was compared to those generated by substrates known to be efficiently utilized by pylRS.

[3] = system: background amber suppression; experiment: Background amber suppression (GFPY40 reporter, pylRS/tRNApyl, dnnAA without nnAA); details: for reduction in background amber suppression levels: dnnAA at 0.5 mM, 1 mM and 2 mM; for % Reduction at 2 mM Decoy: reduction in GFP expression relative to control not exposed to dnnAA, 3 days
Procedure: The competitive assay for dnnAA inhibition in the presence of a high affinity substrate identified dnnAAs that compete for binding with to the pylRS and thus are specific inhibitors of the pylRS/tRNA. However, the decoy nnAA is intended to reduce the levels of background amber suppression in the absence of nnAA. To determine if background amber suppression levels could be reduced, we incubated cells containing the GFPY40 reporter construct and the pylRS/tRNApyl pair in medium containing one of the dnnAAs. To do this, HEK293 cells stably expressing pylRS were transiently transfected with a tRNA expression construct and the GFPY40 reporter cassette. After 3 days of incubation, cells were assayed for expression of GFP by flow cytometry and geometric mean fluorescence intensity of the samples determined. We have previously observed that cells containing the full complement of the pylRS/tRNA amber suppression system show detectable expression of the GFP reporter construct that is above what is observed in cells lacking the amber suppression system. […] To identify dnnAAs capable of reducing background amber suppression levels the transfected cells were incubated with each of the dnnAAs at 0.5 mM, 1 mM and 2 mM and GFP levels measured by flow cytometry.
The decrease in background amber suppression dependent GFP expression was dose dependent and improved as the dnnAA concentration increased. […] This feature is an attractive characteristic for platform development as it enables the repression of background amber suppression but the system can be activated upon addition of a strong pylRS substrate such as lys-azide. […] Their efficacy was quantified by the reduction in GFP expression relative to a control sample (not exposed to dnnAA) and the data are summarized in Table 1.

[4] = biological target: T2, pylRS (Methanosarcina mazei, UniProt Q8PWY1); experiment: In vitro GFPY40 functional assay: dnnAA competition with lys azide in HEK293 cells stably expressing pylRS; details: for reduction of GFP expression relative to samples lacking dnnAA (geometric mean fluorescence intensity): lys azide with 0.5 mM, 1 mM and 2 mM dnnAA
T2 construct: expressed in transfected cells
T2 sequence (Q8PWY1 whole entry): as above
Source text: Effective dnnAAs were identified by their ability to compete with a high affinity substrate for pylRS (lys-azide) in an in vitro assay, for their ability to reduce background amber suppression levels observed with a reporter protein, and for their ability to improve the viability and function of cells previously selected for high pylRS/tRNA activity.
To identify analogues that could effectively compete for pylRS binding with lys-azide, dnnAAs were first tested for function in an in vitro functional assay based on the ability of cells expressing WT pylRS and tRNApyl to introduce a nnAA at a target site in the reporter protein GFPY40. This reporter contains an amber codon in its open reading frame that, in the absence of amber suppression, generates a truncated protein that is not fluorescent. In the event of amber suppression, a full length GFP protein is generated that is detectable by fluorescence detection methods. In this assay, HEK293 cells stably expressing pylRS, were transiently transfected with a tRNA expression construct and the GFPY40 reporter cassette. Cells were then incubated with 0.5 mM lys azide in the presence or absence of different concentrations of dnnAA ranging from 0.5 mM to 2 mM. GFP fluorescence levels were then quantified by flow cytometry. For this assay the proportion of fluorescent cells in each condition was determined and plotted. As the dnnAAs are expected to compete with the nnAA (lys-azide) for pylRS/tRNA binding, an effective dnnAA should reduce or prevent the expression of full length GFP (as described above dnnAAs can be delivered by the tRNA to the amber site, but cannot propagate protein synthesis).
A similar in vitro assay was used to gauge the effectiveness of the dnnAAs of Formula VIIB listed in Table 1 where a description of the amino acids tested and a summary of the results are shown For this assay the geometric mean fluorescence intensity of each sample was determined by flow cytometry and plotted. For each dnnAA tested control cells transfected with wild type GFP were measured as a positive control. In addition cells transfected with the reporter GFPY40 and exposed to 0.5 mM lys azide or 2 mM lys azide were used to determine maximal GFP expression levels in the absence of an inhibitor. In each case robust GFP expression levels were observed. To test whether any of the dnnAA could reduce the efficacy of GFP expression, cells were incubated in the presence of 0.5 mM, 1 mM and 2 mM […]. […] Thus, dnnAAs of the present invention can compete with the lys-azide nnAA for binding to the pylRS and interfere with the physiological mechanism of nnAA introduction. Cells transfected with the pylRS/tRNA pair and the GFPY40 reporter construct but not exposed to either lys-azide or a dnnAA were used to determine levels of background amber suppression and used as a negative control. In each case low GFP expression levels were observed.

[5] = Formula V analogs, geometric mean
[6] = 2 mM dnnAA with 0.5 mM lys-azide
[7] = 2 mM dnnAA with 0.5 mM lys-azide, seven days

[N-]=[N+]=NCCOC(=O)NCCCC[C@H](N)C(=O)O [Formula V.1, (2S)-2-amino-6-{[(2-azidoethoxy)carbonyl]amino}hexanoic acid]
viable cells ([1]; 0.5 mM lys azide alone): ~70% | cell density ([1]; 0.5 mM lys azide alone, day 3 to day 7): below 1 ×10^6 cells/mL | Positive GFP ([2]; Formula V analogs): Yes | MFI [2, 5]: 931,289 | MFI ([2]; Formula V analogs, geometric mean, listed as V.1): 931289

C#CCOC(=O)NCCCC[C@H](N)C(=O)O [Formula V.2, (2S)-2-amino-6-{[(prop-2-yn-1-yloxy)carbonyl]amino}hexanoic acid]
Positive GFP ([2]; Formula V analogs): Yes | MFI [2, 5]: 1,676,250 | MFI ([2]; Formula V analogs, geometric mean, listed as V.2): 1676250

[N-]=[N+]=NCCNC(=O)OCCCC[C@H](N)C(=O)O [Formula VI.1, (2S)-2-amino-6-{[(2-azidoethyl)carbamoyl]oxy}hexanoic acid]
MFI ([2]; Formula VI analogs): 904206 | Positive GFP Assay ([2]; Formula VI analogs): incorporated in the GFP reporter gene and yield green cells and Yes

C=CCNC(=O)OCCCC[C@H](N)C(=O)O [Formula VI.3, (2S)-2-amino-6-{[(prop-2-en-1-yl)carbamoyl]oxy}hexanoic acid]
Positive GFP Assay ([2]; Formula VI analogs): incorporated in the GFP reporter gene and yield green cells and Yes

C=CCOC(=O)NCCCCCC(=O)O [Formula VIIB.1, 6-{[(prop-2-en-1-yloxy)carbonyl]amino}hexanoic acid]
reduction in background amber suppression levels [3]: reduction in the background amber suppression levels | % Reduction at 2 mM Decoy [3]: 62.5% | prevention of cytostatic effects of amber suppression activation [1, 6]: prevent the cytostatic effects | cell viability [1, 7]: 90% | reduction of GFP expression relative to samples lacking dnnAA (geometric mean fluorescence intensity) [4]: greatest reduction of GFP expression

O=C(O)CCCCCNC(=O)OCCCl [Formula VIIB.3, 6-{[(2-chloroethoxy)carbonyl]amino}hexanoic acid]
reduction in background amber suppression levels [3]: reduction in the background amber suppression levels | % Reduction at 2 mM Decoy [3]: 49.7% | cell density [1, 7]: < 0.5 ×10^6 cells/mL | cell viability [1, 7]: 30-40% | reduction of GFP expression relative to samples lacking dnnAA (geometric mean fluorescence intensity) [4]: greatest reduction of GFP expression

CC(C)(C)OC(=O)NCCCCCC(=O)O [Formula VIIB.4, 6-{[(tert-butoxy)carbonyl]amino}hexanoic acid]
% Reduction at 2 mM Decoy [3]: 46.3% | prevention of cytostatic effects of amber suppression activation [1, 6]: prevent the cytostatic effects | cell viability [1, 7]: 90% | number of fluorescent cells (GFPY40) ([4]; 0.5 mM lys azide with dnnAA 0.5 mM to 2 mM): concomitant reduction in the number of fluorescent cells | GFP expression with dnnAA alone (amber codon readthrough) ([4]; dnnAA alone, no lys azide): did not induce GFP expression | effect on GFPwt expression (non-specific effects) ([4]; reporter lacking an amber codon): no effect on protein expression

C#CCOC(=O)NCCCCCC(=O)O [Formula VIIB.5, 6-{[(prop-2-yn-1-yloxy)carbonyl]amino}hexanoic acid]
reduction in background amber suppression levels [3]: reduction in the background amber suppression levels | % Reduction at 2 mM Decoy [3]: 35% | % Reduction at 2 mM Decoy ([3]; listed as VIIB.5): 35.0% | reduction of GFP expression relative to samples lacking dnnAA (geometric mean fluorescence intensity) [4]: relative reduction in GFP expression was much lower

[N-]=[N+]=NCCOC(=O)NCCCCCC(=O)O [Formula VIIB.6, 6-{[(2-azidoethoxy)carbonyl]amino}hexanoic acid]
reduction in background amber suppression levels [3]: reduction in the background amber suppression levels | % Reduction at 2 mM Decoy [3]: 32% | % Reduction at 2 mM Decoy ([3]; listed as VIIB.6): 32.7% | reduction of GFP expression relative to samples lacking dnnAA (geometric mean fluorescence intensity) [4]: greatest reduction of GFP expression
